Measurements from patent US11034725B2, “Compositions and methods for treating cardiovascular disease” (Genentech, Inc., priority 2016, dated 2021).
Where two headings read alike, the source gives them in different places. Numbered stars: 1 amine (or outer) side, 2 acyl side, 3 side chain; on linkers, the order of the positions; unused ones are H or OH. Bridge positions count the residues as written; N and C are the ends. Square brackets hold non-standard residues; d marks the D form. Peptide text beside a SMILES is read from it. * marks the point of attachment. Trp(6-F) = N[C@@H](Cc1c[nH]c2cc(F)ccc12)C(=O)O; NH(CH2)8CO = O=C(CCCCCCCCN[*:1])[*:2]; hArg = N=C(N)NCCCC[C@H](N)C(=O)O; Pentanoyl = CCCCC(=O)*

Experiments:
PCSK9 = PCSK9 (Homo sapiens, UniProt Q8NBP7); test: PCSK9/EGF(A) TR-FRET binding assay; conditions: for IC50: TR-FRET, read-out: PCSK9/EGF(A) IC50
Sequence of PCSK9 (Q8NBP7 153-692): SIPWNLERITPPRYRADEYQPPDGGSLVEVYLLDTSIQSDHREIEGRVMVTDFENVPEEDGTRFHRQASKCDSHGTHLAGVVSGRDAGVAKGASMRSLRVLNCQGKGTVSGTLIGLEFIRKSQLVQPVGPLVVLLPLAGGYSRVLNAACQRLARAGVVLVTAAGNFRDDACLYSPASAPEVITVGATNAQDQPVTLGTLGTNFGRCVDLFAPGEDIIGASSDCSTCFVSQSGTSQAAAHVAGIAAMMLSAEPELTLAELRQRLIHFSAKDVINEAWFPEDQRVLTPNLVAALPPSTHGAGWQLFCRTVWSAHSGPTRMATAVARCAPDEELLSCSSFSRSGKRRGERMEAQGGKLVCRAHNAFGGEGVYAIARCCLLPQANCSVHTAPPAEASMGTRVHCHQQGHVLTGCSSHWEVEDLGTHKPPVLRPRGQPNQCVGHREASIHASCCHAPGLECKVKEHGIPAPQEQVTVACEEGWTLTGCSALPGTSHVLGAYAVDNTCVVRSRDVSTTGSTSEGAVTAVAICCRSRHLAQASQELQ
Sequence of PCSK9 (Q8NBP7 31-152 partner limits assumed): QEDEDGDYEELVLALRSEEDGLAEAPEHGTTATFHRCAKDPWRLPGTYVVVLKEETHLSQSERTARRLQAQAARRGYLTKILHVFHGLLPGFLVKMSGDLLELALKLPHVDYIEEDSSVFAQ

PCSK9Δhelix = target: T1, PCSK9Δhelix (Homo sapiens, UniProt Q8NBP7); test: PCSK9Δhelix/Ab20 TR-FRET binding assay; conditions: for IC50: TR-FRET, read-out: PCSK9Δhelix/Ab20 IC50
T1 construct: Human PCSK9 construct M1-Q692 with an engineered TEV site (residue deletion Y166, R167); made in house; host or cells: CHO
T1 sequence (Q8NBP7 with tags, fused parts or gaps limits assumed): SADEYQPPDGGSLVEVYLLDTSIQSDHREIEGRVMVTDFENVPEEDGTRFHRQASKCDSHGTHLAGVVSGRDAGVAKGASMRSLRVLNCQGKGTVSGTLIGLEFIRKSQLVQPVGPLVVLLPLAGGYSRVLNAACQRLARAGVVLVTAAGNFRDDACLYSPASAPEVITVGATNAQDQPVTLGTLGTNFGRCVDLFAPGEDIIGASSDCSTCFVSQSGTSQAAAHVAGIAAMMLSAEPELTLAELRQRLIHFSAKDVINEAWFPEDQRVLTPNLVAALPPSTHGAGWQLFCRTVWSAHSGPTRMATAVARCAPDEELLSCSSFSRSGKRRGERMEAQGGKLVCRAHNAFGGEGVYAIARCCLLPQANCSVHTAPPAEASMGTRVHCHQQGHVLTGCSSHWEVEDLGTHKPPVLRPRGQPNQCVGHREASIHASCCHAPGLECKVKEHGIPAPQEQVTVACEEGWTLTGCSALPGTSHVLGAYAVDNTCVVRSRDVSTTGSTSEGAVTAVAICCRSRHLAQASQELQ
T1 sequence (Q8NBP7 31-152 partner limits assumed): as the sequence (Q8NBP7 31-152 partner limits assumed) above

His-EGF(A)-Fc = His-EGF(A)-Fc TR-FRET counterscreen
[1] = TR-FRET counterscreen, Table 8E, additional compounds
[2] = Table 8D, disulfide-cyclized extension peptides
[3] = TR-FRET counterscreen, Table 8D, * = some inhibition at highest concentrations, not sufficient to fit an IC50

| Molecule | IC50 (PCSK9; Example 7) [µM] | inhibition in the PCSK9Δhelix/Ab20 binding assay (PCSK9Δhelix) | IC50 (PCSK9Δhelix; Example 7) [µM] | IC50 (His-EGF(A)-Fc; counterscreen, Example 7) [µM] | IC50 (PCSK9; [2]) [µM] | IC50 (PCSK9Δhelix; [2]) [µM] | IC50 (His-EGF(A)-Fc; [3]) [µM] | other results |
| --- | --- | --- | --- | --- | --- | --- | --- | --- |
| CC[C@H](C)[C@@H]1NC(=O)[C@H](CCCNC(=N)N)NC(=O)[C@H](CCCCN)NC(=O)[C@H](CC(C)C)NC(=O)[C@H](CC(N)=O)NC(=O)[C@H](Cc2c[nH]c3ccccc23)NC(=O)[C@@H](NC(=O)CNC(=O)[C@H](CO)NC(=O)CNC(=O)CNC(=O)[C@@H](NC(=O)[C@H](Cc2c[nH]c3ccccc23)NC(=O)[C@H](CC(=O)O)NC(=O)[C@H](CC(C)C)NC(=O)[C@H](Cc2ccc(O)cc2)NC(=O)[C@H](CCC(=O)O)NC(=O)[C@H](CCC(=O)O)NC(=O)[C@H](Cc2c[nH]c3ccccc23)NC(=O)[C@H](CO)NC(=O)[C@@H](NC(=O)[C@H](Cc2ccccc2)NC(=O)[C@@H](NC(=O)[C@@H](NC(C)=O)[C@@H](C)O)C(C)C)[C@@H](C)O)C(C)C)CSSC[C@@H](C(N)=O)NC(=O)CNC(=O)[C@H](CCC(N)=O)NC(=O)[C@H](CO)NC(=O)CNC1=O [Compound 13] (Ac-TVFTSWEEYLDWVGGSGCWNLKRIGSQGC-NH2; disulfide 18-29) | 0.01 | potent inhibitors | 0.001 | > 50 | – | – | – | inhibition in the PCSK9/EGF(A) binding assay (PCSK9): potent inhibitors |
| CCCCC(=O)N[C@@H](Cc1c[nH]c2ccccc12)C(=O)N[C@@H](CC(N)=O)C(=O)N[C@@H](CC(C)C)C(=O)N[C@H](C(=O)N[C@@H](CCCCNC(=N)N)C(=O)N[C@H](C(=O)NCC(=O)N[C@@H](CC(C)C)C(=O)N[C@H](C(=O)N[C@@H](CCCNC(=N)N)C(N)=O)[C@@H](C)O)[C@@H](C)CC)C(C)C [Compound 234, n-BuC(O)-WNLV(homoR)IGLTR-NH2] (Pentanoyl-WNLV[hArg]IGLTR-NH2) | – | – | – | – | – | – | – | IC50 (PCSK9; Table 8E, additional compounds): ≥ 50 µM; IC50 (PCSK9Δhelix; Table 8E, additional compounds): 1.4 µM; IC50 (His-EGF(A)-Fc; [1]): ≥ 50 µM |
| CC(=O)N[C@H]1CSSC[C@@H](C(N)=O)NC(=O)CCCCCCCCNC(=O)[C@H](CCCNC(=N)N)NC(=O)[C@H](CCC(N)=O)NC(=O)[C@H](CC(C)C)NC(=O)[C@H](CC(N)=O)NC(=O)[C@H](Cc2c[nH]c3ccccc23)NC(=O)[C@@H]2CCCN2C(=O)[C@H](CC(C)C)NC(=O)[C@H](CCCNC(=N)N)NC1=O [Compound 85] (Ac-CRLPWNLQR[NH(CH2)8CO]C-NH2; disulfide 1-11) | – | removes inhibition | – | – | > 50 | > 50 | > 50 | – |
| Ac-DLMPWNLVRIG-NH2 [Compound 48] | > 50 | – | ≥ 49.5 | > 50 | – | – | – | – |
| CC[C@H](C)[C@@H]1NC(=O)[C@H](CCCNC(=N)N)NC(=O)[C@H](CCCCN)NC(=O)[C@H](CC(C)C)NC(=O)[C@H](CC(N)=O)NC(=O)[C@H](Cc2c[nH]c3ccccc23)NC(=O)[C@@H](NC(C)=O)CSSC[C@@H](C(N)=O)NC(=O)CNC(=O)[C@H](CCC(N)=O)NC(=O)[C@H](CO)NC(=O)CNC1=O [Compound 21] (Ac-CWNLKRIGSQGC-NH2; disulfide 1-12) | – | – | – | – | > 50 | > 50 | > 50 | – |
| Ac-DLMAWNLVRIGLLR-NH2 [Compound 42] | > 50 | – | 28.5 | > 50 | – | – | – | – |
| CC[C@H](C)[C@@H]1NC(=O)[C@H](CCCNC(=N)N)NC(=O)[C@H](CCCCN)NC(=O)[C@H](CC(C)C)NC(=O)[C@H](CC(N)=O)NC(=O)[C@H](Cc2c[nH]c3ccccc23)NC(=O)[C@@H](NC(=O)CCCCCCCNC(=O)[C@@H](NC(=O)[C@H](Cc2c[nH]c3ccccc23)NC(=O)[C@H](CC(=O)O)NC(=O)[C@H](CC(C)C)NC(=O)[C@H](Cc2ccc(O)cc2)NC(=O)[C@H](CCC(=O)O)NC(=O)[C@H](CCC(=O)O)NC(=O)[C@H](Cc2c[nH]c3ccccc23)NC(=O)[C@H](CO)NC(=O)[C@@H](NC(=O)[C@H](Cc2ccccc2)NC(=O)[C@@H](NC(=O)[C@@H](NC(C)=O)[C@@H](C)O)C(C)C)[C@@H](C)O)C(C)C)CSSC[C@@H](C(N)=O)NC(=O)CNC(=O)[C@H](CCC(N)=O)NC(=O)[C@H](CO)NC(=O)CNC1=O [Compound 15] | – | maintained potency | 0.002 | > 50 | – | – | – | inhibition in the PCSK9/EGF(A) binding assay (PCSK9): maintained potency |
| CC[C@H](C)[C@@H]1NC(=O)[C@H](CCCNC(=N)N)NC(=O)[C@H](CCC(N)=O)NC(=O)[C@H](CC(C)C)NC(=O)[C@H](CC(N)=O)NC(=O)[C@H](Cc2c[nH]c3ccccc23)NC(=O)[C@@H]2CCCN2C(=O)[C@H](CC(C)C)NC(=O)[C@H](CCCNC(=N)N)NC(=O)[C@@H](NC(C)=O)CSSC[C@@H](C(N)=O)NC(=O)[C@H](C)NC(=O)[C@H](CC(C)C)NC(=O)CNC1=O [Compound 68] (Ac-CRLPWNLQRIGLAC-NH2; disulfide 1-14) | – | – | – | – | > 50 | 0.939 | > 50 | – |
| CC[C@H](C)[C@@H]1NC(=O)[C@H](CCCNC(=N)N)NC(=O)[C@H](CCC(N)=O)NC(=O)[C@H](CC(C)C)NC(=O)[C@H](CC(N)=O)NC(=O)[C@H](Cc2c[nH]c3ccccc23)NC(=O)[C@H](C)NC(=O)[C@H](CC(C)C)NC(=O)[C@H](CCCNC(=N)N)NC(=O)[C@@H](NC(C)=O)CSSC[C@@H](C(N)=O)NC(=O)[C@@H]2CCCN2C(=O)[C@H](CC(C)C)NC(=O)CNC1=O [Compound 77] (Ac-CRLAWNLQRIGLPC-NH2; disulfide 1-14) | – | – | – | – | > 50 | 6.02 | > 50 | – |
| CCCCC(=O)N[C@@H](Cc1c[nH]c2cc(F)ccc12)C(=O)N[C@@H](CC(N)=O)C(=O)N[C@@H](CC(C)C)C(=O)N[C@H](C(=O)N[C@@H](CCCNC(=N)N)C(=O)N[C@H](C(=O)NCC(=O)N[C@@H](CC(C)C)C(=O)N[C@H](C(=O)N[C@@H](CCCNC(=N)N)C(N)=O)[C@@H](C)O)[C@@H](C)CC)C(C)C [Compound 174] (Pentanoyl-[Trp(6-F)]NLVRIGLTR-NH2) | – | – | – | – | – | – | – | IC50 (PCSK9; Table 8E, additional compounds): ≥ 50 µM; IC50 (PCSK9Δhelix; Table 8E, additional compounds): 6.2 µM; IC50 (His-EGF(A)-Fc; [1]): ≥ 50 µM |
| CC[C@H](C)[C@@H]1NC(=O)[C@H](CCCNC(=N)N)NC(=O)[C@H](CCCCN)NC(=O)[C@H](CC(C)C)NC(=O)[C@H](CC(N)=O)NC(=O)[C@H](Cc2c[nH]c3ccccc23)NC(=O)[C@@H](NC(=O)CCCCCCNC(=O)[C@@H](NC(=O)[C@H](Cc2c[nH]c3ccccc23)NC(=O)[C@H](CC(=O)O)NC(=O)[C@H](CC(C)C)NC(=O)[C@H](Cc2ccc(O)cc2)NC(=O)[C@H](CCC(=O)O)NC(=O)[C@H](CCC(=O)O)NC(=O)[C@H](Cc2c[nH]c3ccccc23)NC(=O)[C@H](CO)NC(=O)[C@@H](NC(=O)[C@H](Cc2ccccc2)NC(=O)[C@@H](NC(=O)[C@@H](NC(C)=O)[C@@H](C)O)C(C)C)[C@@H](C)O)C(C)C)CSSC[C@@H](C(N)=O)NC(=O)CNC(=O)[C@H](CCC(N)=O)NC(=O)[C@H](CO)NC(=O)CNC1=O [Compound 24] | – | maintained potency | 0.001 | > 50 | – | – | – | inhibition in the PCSK9/EGF(A) binding assay (PCSK9): maintained potency |
| CC[C@@H](C)[C@H]1NC(=O)[C@H](CCCNC(=N)N)NC(=O)[C@H](CCC(N)=O)NC(=O)[C@H](CC(C)C)NC(=O)[C@H](CC(N)=O)NC(=O)[C@H](Cc2c[nH]c3ccccc23)NC(=O)[C@@H]2CCCN2C(=O)[C@H](CC(C)C)NC(=O)[C@H](CCCNC(=N)N)NC(=O)[C@@H](NC(C)=O)CSSC[C@@H](C(N)=O)NC(=O)[C@@H]2CCCN2C(=O)[C@H](CC(C)C)NC(=O)CNC1=O [Compound 101] (Ac-CRLPWNLQR[dI]GLPC-NH2; disulfide 1-14) | – | – | – | – | > 50 | > 50 | > 50 | – |
| Ac-DLMPWNLVAIGLLR-NH2 [Compound 59] | > 50 | – | > 49.5 | > 50 | – | – | – | – |
